In patent US20150011751A1, “NOVEL TRIAZINE DERIVATIVE” (CARNA BIOSCIENCES, INC., priority 2012, published 2015):

Each compound was assayed against Dephosphorylated BTK (Homo sapiens, UniProt Q06187) (assay: Test of activity inhibition against dephosphorylated BTK (mobility shift assay)).
Chain of Dephosphorylated BTK (Q06187 whole entry): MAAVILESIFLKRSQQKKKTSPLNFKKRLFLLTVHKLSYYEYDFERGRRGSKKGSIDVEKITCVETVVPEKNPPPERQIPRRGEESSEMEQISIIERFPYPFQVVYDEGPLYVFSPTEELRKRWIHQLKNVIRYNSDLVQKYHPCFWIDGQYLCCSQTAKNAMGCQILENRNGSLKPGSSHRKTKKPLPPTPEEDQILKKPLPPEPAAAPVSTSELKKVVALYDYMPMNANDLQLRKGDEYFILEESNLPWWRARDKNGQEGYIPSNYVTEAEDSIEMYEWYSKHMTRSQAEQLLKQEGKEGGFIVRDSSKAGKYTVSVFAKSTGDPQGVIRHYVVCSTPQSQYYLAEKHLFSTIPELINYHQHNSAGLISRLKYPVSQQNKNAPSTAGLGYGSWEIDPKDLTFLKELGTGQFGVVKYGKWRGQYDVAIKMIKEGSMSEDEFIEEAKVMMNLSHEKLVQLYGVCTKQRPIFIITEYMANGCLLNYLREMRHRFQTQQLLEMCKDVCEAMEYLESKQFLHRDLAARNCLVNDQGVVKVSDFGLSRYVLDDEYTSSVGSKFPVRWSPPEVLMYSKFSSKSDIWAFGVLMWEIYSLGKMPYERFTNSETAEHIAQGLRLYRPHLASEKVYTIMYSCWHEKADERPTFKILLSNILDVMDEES
For Nc1nc(Nc2cnn(CCN3CCOCC3)c2)nc(-c2cccc(N3CCc4cc(C5CC5)cc(F)c4C3=O)c2CO)n1 [Example 237, 2-[3-(4-Amino-6-{[1-(2-morpholinoethyl)-1H-pyrazol-4-yl]amino}-1,3,5-triazin-2-yl)-2-(hydroxymethyl)phenyl]-6-cyclopropyl-8-fluoro-3,4-dihydro-isoquinolin-1(2H)-one], the IC50 was 0.8 nM. CN1CCN(c2ccc(Nc3nc(N)nc(-c4cccc(NC(=O)c5ccc(C(C)(C)C)cc5)c4CO)n3)cc2)CC1 [Example 146, N-[3-(4-Amino-6-{[4-(4-methylpiperazin-1-yl)phenyl]amino}-1,3,5-triazin-2-yl)-2-(hy-droxymethyl)phenyl]-4-(tert-butyl)benzamide] gave an IC50 of 0.4 nM. With CC1CCc2sc(C(=O)Nc3cccc(-c4nc(N)nc(Nc5ccc(N6CCOCC6)cc5)n4)c3CO)cc2C1 (stereo not shown) [Example 139, N-(3-{4-Amino-6-[(4-morpholinophenyl)amino]-1,3,5-triazin-2-yl}-2-(hydroxymethyl)phe-nyl)-5-methyl-4,5,6,7-tetrahydrobenzo[b] thiophene-2-carboxamide] the IC50 was 1.6 nM. With Nc1nc(Nc2cnn(C3CCCC3)c2)nc(-c2cccc(N3CCc4cc(C5CC5)cc(F)c4C3=O)c2CO)n1 [Example 239, 2-(3-{4-Amino-6-[(1-cyclo-pentyl-1H-pyrazol-4-yl)amino]-1,3,5-tri-azin-2-yl}-2-(hydroxy-methyl)phenyl)-6-cyclo-propyl-8-fluoro-3,4-dihydroisoquinolin-1 (2H)-one] the IC50 was 0.5 nM. CC(C)(CO)c1ccc(C(=O)Nc2cccc(-c3nc(N)nc(Nc4ccc(N5CCOCC5)cc4)n3)c2CO)cc1 [Example 201, N-(3-{4-Amino-6-[(4-mor-pholinophenyl)amino]-1,3,5-triazin-2-yl}-2-(hydroxymethyl)phe-nyl)-4-(1-hydroxy-2-meth-ylpropan-2-yl)benz-amide] showed an IC50 of 3.4 nM. NC(=O)Cn1cc(Nc2nc(N)nc(-c3cccc(N4CCc5cc(C6CC6)cc(F)c5C4=O)c3CO)n2)cn1 [Example 266, 2-[4-({4-Amino-6-[3-(6-cyclopropyl-8-fluoro-1-oxo-3,4-dihydroiso-quinolin-2(1H)-yl)-2-(hydroxymethyl)phenyl]-1,3,5-triazin-2-yl}amino)-1H-pyrazol-1-yl]acetamide] showed an IC50 of 1.3 nM. Cc1cc(Nc2nc(N)nc(-c3cccc(NC(=O)c4ccc(C(C)(C)C)cc4)c3CO)n2)ccc1O [Example 117, N-(3-{4-Amino-6-[(4-hy-droxy-3-methylphenyl)amino]-1,3,5-triazin-2-yl)-2-(hydroxymeth-yl)phenyl)-4-(tert-butyl)benzamide] gave an IC50 of 0.9 nM. Nc1nc(Nc2cnn(CC(=O)N3CCOCC3)c2)nc(-c2cccc(N3CCc4cc(C5CC5)cc(F)c4C3=O)c2CO)n1 [Example 253, 2-[3-(4-Amino-6-{[1-(2-morpholino-2-oxoeth-yl)-1H-pyrazol-4-yl]ami-no}-1,3,5-triazin-2-yl)-2-(hydroxymethyl)phenyl]-6-cyclopropyl-8-fluoro-3,4-dihydro-isoquinolin-1(2H)-one] showed an IC50 of 0.8 nM. With CC(C)(C)c1ccc(C(=O)Nc2cccc(-c3nc(N)nc(Nc4ccc5[nH]ncc5c4)n3)c2CO)cc1 [Example 140, N-(3-{4-[(1H-Indazol-5-yl)amino]-6-amino-1,3,5-triazin-2-yl}-2-(hydroxymethyl)phenyl)-4-(tert-butyl)benzamide] the IC50 was 1.7 nM. COC(=O)c1cccc(Nc2nc(N)nc(-c3cccc(NC(=O)c4ccc(C(C)(C)C)cc4)c3CO)n2)c1 [Example 142, Methyl 3-[(4-amino-6-{3-[4-(tert-butyl)benzamido]-2-(hydroxymethyl)phe-nyl}-1,3,5-triazin-2-yl)amino]benzoate] was tested, and the IC50 was 3.1 nM. Work on Nc1nc(Nc2cnn([C@H]3CCOC3)c2)nc(-c2cccc(N3CCc4cc(C5CC5)cc(F)c4C3=O)c2CO)n1 [Example 235, (S)-2-[3-(4-Amino-6-{[1-(tetrahydrofuran-3-yl)-1H-pyrazol-4-yl]amino}-1,3,5-triazin-2-yl)-2-(hydroxymeth-yl)phenyl]-6-cyclopropyl-8-fluoro-3,4-dihydro-isoquinolin-1(2H)-one] yielded an IC50 of 0.8 nM. In the case of CC(C)(C)c1ccc(C(=O)Nc2cccc(-c3nc(N)nc(Nc4ccc(-n5ccnc5)cc4)n3)c2CO)cc1 [Example 185, N-[3-(4-{[4-(1H-Imida-zol-1-yl)phenyl]amino}-6-amino-1,3,5-triazin-2-yl)-2-(hydroxymeth-yl)phenyl]-4-(tert-butyl)benzamide], the IC50 is reported as 1.2 nM. CC1(Cn2cc(Nc3nc(N)nc(-c4cccc(N5CCc6cc(C7CC7)cc(F)c6C5=O)c4CO)n3)cn2)COC1 [Example 261, 2-{3-[4-Amino-6-({1-[(3-methyloxetan-3-yl)methyl]-1H-pyrazol-4-yl}amino)-1,3,5-triazin-2-yl]-2-(hydroxymeth-yl)phenyl}-6-cyclopro-pyl-8-fluoro-3,4-di-hydroisoquinolin-1(1H)-one] was tested, and the IC50 was 1.5 nM. With CN(C)CCCOc1ccc(Nc2nc(N)nc(-c3cccc(NC(=O)c4cc5c(s4)CCCC5)c3CO)n2)cc1 [Example 135, N-{3-[4-Amino-6-({4-[3-(dimethylamino)prop-oxy]phenyl}amino)-1,3,5-triazin-2-yl]-2-(hy-droxymethyl)phenyl}-4,5,6,7-tetrahydro-benzo[b]thiophene-2-carboxamide] the IC50 was 1.3 nM. CC(C)(C)c1ccc(C(=O)Nc2cccc(-c3nc(N)nc(Nc4cccc(C(=O)O)c4)n3)c2CO)cc1 [Example 153, 3-[(4-Amino-6-{3-[4-(tert-butyl)benzamido]-2-(hydroxymethyl)phe-nyl}-1,3,5-triazin-2-yl)amino]benzoic acid] gave an IC50 of 4.9 nM. In the case of CC(C)(C)c1ccc(C(=O)Nc2cccc(-c3nc(N)nc(Nc4ccc(Cn5ccccc5=O)cc4)n3)c2CO)cc1 [Example 173, N-{3-[4-Amino-6-({4-[(2-oxopyridin-1(2H)-yl)methyl]phenyl}amino)-1,3,5-triazin-2-yl]-2-(hydroxymethyl)phe-nyl}-4-(tert-butyl) benzamide], the IC50 is reported as 0.6 nM. Cc1c(NC(=O)c2ccc(C(C)(C)C)cc2)cccc1-c1nc(N)nc(Nc2ccc(N3CCC(N4CCOCC4)CC3)cc2)n1 [Example 80, N-[3-(4-Amino-6-{[4-(4-morpholinopiperidin-1-yl)phenyl]amino}-1,3,5-triazin-2-yl)-2-methylphenyl]-4-(tert-butyl)benzamide] was tested, and the IC50 was 2.1 nM. For Nc1nc(Nc2cn[nH]c2)nc(-c2cccc(N3CCc4cc(C5CC5)cc(F)c4C3=O)c2CO)n1 [Example 195, 2-(3-{4-[(1H-Pyrazol-4-yl)amino]-6-amino-1,3,5-triazin-2-yl}-2-(hydroxymethyl)phenyl)-6-cyclopropyl-8-fluoro-3,4-dihydro-isoquinolin-1(2H)-one], the IC50 was 0.8 nM. CC(C)(C)c1cc2c(s1)C(=O)N(c1cccc(-c3nc(N)nc(Nc4ccc(CN5CCOCC5)cc4)n3)c1CO)C2 [Example 77, 5-[3-(4-Amino-6-{[4-(morpho-linomethyl)phe-nyl]amino}-1,3,5-triazin-2-yl)-2-(hydroxymeth-yl)phenyl]-2-(tert-butyl)-4H-thieno[2,3-c]pyrrol-6(5H)-one] was tested, and the IC50 was 3.4 nM. With COCCn1cc(Nc2nc(N)nc(-c3cccc(N4CCc5cc(C6CC6)cc(F)c5C4=O)c3CO)n2)cn1 [Example 212, 2-[3-(4-Amino-6-{[1-(2-methoxyethyl)-1H-py-razol-4-yl]amino}-1,3,5-triazin-2-yl)-2-(hy-droxymethyl)phenyl]-6-cyclopropyl-8-fluoro-3,4-dihydroisoquinolin-1(2H)-one] the IC50 was 0.9 nM. With Cc1cc(Nc2nc(N)nc(-c3cccc(NC(=O)c4ccc(C(C)(C)C)cc4)c3CO)n2)cc(C)c1O [Example 123, N-(3-{4-Amino-6-[(4-hy-droxy-3,5-dimethyl-phenyl)amino]-1,3,5-tri-azin-2-yl}-2-(hydroxy-methyl)phenyl)-4-(tert-butyl)benzamide] the IC50 was 1.4 nM. For Cc1c(NC(=O)c2ccc(C(C)(C)C)cc2)cccc1-c1ncnc(Nc2ccc(CN3CCOCC3)cc2)n1 [Example 25, 4-(tert-Butyl)-N-[2-meth-yl-3-(4-{[4-(morpho-linomethyl)phenyl]ami-no}-1,3,5-triazin-2-yl)phenyl]benzamide], the IC50 was 3.5 nM. In the case of CC(C)(C)c1ccc(C(=O)Nc2cccc(-c3nc(N)nc(Nc4ccc(N5CCC(O)CC5)cc4)n3)c2CO)cc1 [Example 107, N-[3-(4-Amino-6-{[4-(4-hydroxypiperidin-1-yl)phenyl]amino}-1,3,5-triazin-2-yl)-2-(hy-droxymethyl)phenyl]-4-(tert-butyl)benzamide], the IC50 is reported as 0.8 nM. Cc1cc(Nc2nc(N)nc(-c3cccc(N4CCc5cc(C6CC6)cc(F)c5C4=O)c3CO)n2)n[nH]1 [Example 205, 2-(3-{4-Amino-6-[(5-meth-yl-1H-pyrazol-3-yl)amino]-1,3,5-triazin-2-yl}-2-(hydroxymeth-yl)phenyl)-6-cyclopro-pyl-8-fluoro-3,4-dihy-droisoquinolin-1(2H)-one] showed an IC50 of 9.9 nM. In the case of Nc1nc(Nc2ccc(Cc3nnn[nH]3)cc2)nc(-c2cccc(N3CCc4cc(C5CC5)cc(F)c4C3=O)c2CO)n1 [Example 198, 2-{3-[4-({4-[(1H-Tetra-zol-5-yl)methyl]phe-nyl}amino)-6-amino-1,3,5-triazin-2-yl]-2-(hy-droxymethyl)phenyl}-6-cyclopropyl-8-fluoro-3,4-dihydroisoquinolin-1(2H)-one], the IC50 is reported as 3.7 nM. With Cc1c(NC(=O)c2cc3c(s2)CCCC3)cccc1-c1nc(N)nc(Nc2ccc(C(=O)N3CCOCC3)cc2)n1 [Example 66, N-[3-(4-Amino-6-{[4-(morpho-line-4-carbonyl)phenyl]amino}-1,3,5-triazin-2-yl)-2-methyl-phenyl]-4,5,6,7-tetra-hydrobenzo[b]thiophene-2-carboxamide] the IC50 was 3.2 nM. Nc1nc(Nc2ccc(N3CCOCC3)nc2)nc(-c2cccc(N3CCc4cc(C5CC5)cc(F)c4C3=O)c2CO)n1 [Example 46, 2-(3-{4-Amino-6-[(6-morpho-linopyridin-3-yl)amino]-1,3,5-triazin-2-yl}-2-(hydroxymeth-yl)phenyl)-6-cyclopro-pyl-8-fluoro-3,4-dihy-droisoquinolin-1(2H)-one] was tested, and the IC50 was 5.2 nM. CC(C)(C)c1ccc(C(=O)Nc2cccc(-c3nc(N)nc(Nc4ccc(N5CCOC5=O)cc4)n3)c2CO)cc1 [Example 156, N-[3-(4-Amino-6-{[4-(2-oxooxazolidin-3-yl)phenyl]amino}-1,3,5-tri-azin-2-yl)-2-(hydroxy-methyl)phenyl]-4-(tert-butyl)benzamide] showed an IC50 of 0.5 nM.
